Laboratory results reported in patent US20250381171A1, “COMBINATION OF DIHYDROBERBERINE AND ERGOTHIONEINE TO REDUCE OR INHIBIT ADVANCED GLYCATION END-PRODUCTS” (NANJING NUTRABUILDING BIO-TECH CO., LTD., priority 2023, published 2025).

How the values were obtained:
[1] = tested on: SOD; experiment: SOD activity in skin of D-galactose-injected mice; type: in vivo, Kunming mice; settings: 14th week, 100 mg/kg each s.c. once daily for 6 weeks, vs non-supplementation group
Protocol: (§1) Six-week-old, male, Kunming mice (n=40), weighed about 30±2 g, were obtained from Cavens Lab Animal (Changzhou, China) and housed in a controlled room (25±2° C., 60% relative humidity, 12 h light/dark cycle) with free access to water and standard laboratory diet. After an acclimation period (1 week), mice were randomly divided into four groups. Each mouse's back skin was chosen as the experimental observation area, a razor was used to shave off the back hair. 5% sodium sulfide solution was applied to the back to remove the hair. All mice were then injected subcutaneously with same volume of D-galactose (1000 mg/kg), once a day for 8 weeks. During the entire experiment, the daily food intake and weight of each mouse were recorded every day, and the D-galactose injection dose were adjusted according to the weight change. The four groups were non-supplement group (Con, Group 1); DHB supplement group (100 mg/kg, Group 2); EGT supplement group (100 mg/kg, Group 3); and EGT+DHB supplement group (100 mg/kg EGT+100 mg/kg DHB, Group 4). Mice in groups 2-4 were injected subcutaneously (s.c.) into their back skins with the corresponding concentration before each major meal once daily for 6 weeks. All mice were sacrificed after 6 weeks at the end of the experiment. […] The levels of H2O2, SOD, CAT, GSH, and GSH-Px in the skin were detected with relative kits as reference. […]

[2] = tested on: CAT; experiment: CAT activity in skin of D-galactose-injected mice; type: in vivo, Kunming mice; settings: 14th week, 100 mg/kg each s.c. once daily for 6 weeks, vs non-supplementation group
Protocol: as §1

[3] = tested on: GSH; experiment: GSH activity in skin of D-galactose-injected mice; type: in vivo, Kunming mice; settings: 14th week, 100 mg/kg each s.c. once daily for 6 weeks, vs non-supplementation group
Protocol: as §1

[4] = tested on: GSH-Px; experiment: GSH-Px activity in skin of D-galactose-injected mice; type: in vivo, Kunming mice; settings: 14th week, 100 mg/kg each s.c. once daily for 6 weeks, vs non-supplementation group
Protocol: as §1

[5] = tested on: advanced glycation end products (AGEs) formed from bovine serum albumin (BSA) and D-ribose; experiment: Measurement of glycation: fluorescence of AGEs from BSA incubated with D-ribose; type: biochemical; settings: BSA 1 mg/ml + D-ribose 10 mM, 37° C., 10 days; EGT 3 mM alone or DHB 3 mM + EGT 3 mM
Protocol: The formulation of glycation products was observed placing together a bovine serum albumin (BSA) and D-ribose in the absence of DHB and EGT, EGT only and DHB and EGT combination.
Specifically, a solution of BSA at a concentration of 1 mg/ml dissolved in phosphate-buffered saline (PBS) was incubated at 37° C. for 10 days with D-ribose at a concentration of 10 mM, in the presence of EGT only (3 mM, Group 1) and the DHB (3 mM) and EGT (3 mM) combination (Group 2).
So, the glycation was evaluated by measuring the fluorescence of the AGEs at λem=450 nm emitted by each sample after excitation at λex=380 nm. The inhibition of glycation was visualized by the decrease in fluorescence compared with the samples treated with the sugar alone.

SMILES	SOD activity (in words) [1]	CAT activity (in words) [2]	GSH activity (in words) [3]	GSH-Px activity (in words) [4]	anti-glycation activity (in words) [5]
COc1ccc2c(c1OC)CN1CCc3cc4c(cc3C1=C2)OCO4 [DHB, Dihydroberberine]	significantly improved	significantly improved	significantly improved	significantly improved	–
C[N+](C)(C)[C@@H](Cc1c[nH]c(=S)[nH]1)C(=O)[O-] [EGT, ergothioneine]	significantly improved	significantly improved	significantly improved	significantly improved	fabulous anti-glycation activity
